# Reference: the kinase profiling compilation of Christmann-Franck et al. (2016)
# Where “and” joins values, the source holds several entries; their conditions need not be identical. Identical values can stand only once.
# How the values were obtained:
# Assay in all cases: radiometric filter-binding kinase assay, Kinase HotSpot
# Conditions in all cases: compound 0.5 µM; ATP 10 µM
# [1] = target: ACVR1B (human) (UniProt P36896)
# [2] = target: AKT3 (human) (UniProt Q9Y243)
# [3] = target: BMX (human) (UniProt P51813)
# [4] = target: CAMKK1 (human) (UniProt Q8N5S9)
# [5] = target: CDK5 CDK5R1 p35 (human) (UniProt Q00535+Q15078)
# [6] = target: CLK4 (human) (UniProt Q9HAZ1)
# [7] = target: CSF1R (human) (UniProt P07333)
# [8] = target: CSNK1D (human) (UniProt P48730)
# [9] = target: DYRK1A (human) (UniProt Q13627)
# [10] = target: EPHB4 (human) (UniProt P54760)
# [11] = target: ERBB2 (human) (UniProt P04626)
# [12] = target: FGFR1 (human) (UniProt P11362)
# [13] = target: FGFR2 (human) (UniProt P21802)
# [14] = target: FGFR3 (human) (UniProt P22607)
# [15] = target: ITK (human) (UniProt Q08881)
# [16] = target: LCK (human) (UniProt P06239)
# [17] = target: LYN (human) (UniProt P07948)
# [18] = target: MAP3K8 (human) (UniProt P41279)
# [19] = target: MAPK11 (human) (UniProt Q15759)
# [20] = target: MAPK3 (human) (UniProt P27361)
# [21] = target: MARK3 (human) (UniProt P27448)
# [22] = target: MARK4 (human) (UniProt Q96L34)
# [23] = target: MST4 (human) (UniProt Q9P289)
# [24] = target: OXSR1 (human) (UniProt O95747)
# [25] = target: PHKG1 (human) (UniProt Q16816)
# [26] = target: PLK1 (human) (UniProt P53350)
# [27] = target: PRKCH (human) (UniProt P24723)
# [28] = target: PRKCZ (human) (UniProt Q05513)
# [29] = target: PRKD1 (human) (UniProt Q15139)
# [30] = target: PRKG1 (human) (UniProt Q13976)
# [31] = target: PTK2B (human) (UniProt Q14289)
# [32] = target: ROCK2 (human) (UniProt O75116)
# [33] = target: RPS6KA1 KD1 KD2 (human) (UniProt Q15418)
# [34] = target: RPS6KA6 KD1 KD2 (human) (UniProt Q9UK32)
# [35] = target: SGK2 (human) (UniProt Q9HBY8)
# [36] = target: SGK3 (human) (UniProt Q96BR1)
# [37] = target: SIK2 (human) (UniProt Q9H0K1)
# [38] = target: STK16 (human) (UniProt O75716)
# [39] = target: STK4 (human) (UniProt Q13043)
# [40] = target: TEC (human) (UniProt P42680)
# [41] = target: WEE1 (human) (UniProt P30291)
# [42] = target: WNK3 (human) (UniProt Q9BYP7)
# Sequence of OXSR1 (human) (O95747 whole entry, looked up): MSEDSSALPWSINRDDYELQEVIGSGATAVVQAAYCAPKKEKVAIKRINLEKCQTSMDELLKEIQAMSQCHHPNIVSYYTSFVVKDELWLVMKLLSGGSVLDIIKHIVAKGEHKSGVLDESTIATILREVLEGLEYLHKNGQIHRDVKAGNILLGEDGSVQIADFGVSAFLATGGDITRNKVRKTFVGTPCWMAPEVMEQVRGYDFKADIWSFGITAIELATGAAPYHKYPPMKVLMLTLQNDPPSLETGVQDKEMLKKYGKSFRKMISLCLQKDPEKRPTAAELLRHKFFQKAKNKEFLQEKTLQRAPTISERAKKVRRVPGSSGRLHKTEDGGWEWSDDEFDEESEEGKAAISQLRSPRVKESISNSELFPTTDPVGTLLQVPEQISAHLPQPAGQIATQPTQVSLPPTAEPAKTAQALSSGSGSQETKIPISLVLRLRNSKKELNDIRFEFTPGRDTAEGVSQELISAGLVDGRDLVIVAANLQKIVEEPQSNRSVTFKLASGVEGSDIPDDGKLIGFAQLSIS
# Sequence of PLK1 (human) (P53350 whole entry, looked up): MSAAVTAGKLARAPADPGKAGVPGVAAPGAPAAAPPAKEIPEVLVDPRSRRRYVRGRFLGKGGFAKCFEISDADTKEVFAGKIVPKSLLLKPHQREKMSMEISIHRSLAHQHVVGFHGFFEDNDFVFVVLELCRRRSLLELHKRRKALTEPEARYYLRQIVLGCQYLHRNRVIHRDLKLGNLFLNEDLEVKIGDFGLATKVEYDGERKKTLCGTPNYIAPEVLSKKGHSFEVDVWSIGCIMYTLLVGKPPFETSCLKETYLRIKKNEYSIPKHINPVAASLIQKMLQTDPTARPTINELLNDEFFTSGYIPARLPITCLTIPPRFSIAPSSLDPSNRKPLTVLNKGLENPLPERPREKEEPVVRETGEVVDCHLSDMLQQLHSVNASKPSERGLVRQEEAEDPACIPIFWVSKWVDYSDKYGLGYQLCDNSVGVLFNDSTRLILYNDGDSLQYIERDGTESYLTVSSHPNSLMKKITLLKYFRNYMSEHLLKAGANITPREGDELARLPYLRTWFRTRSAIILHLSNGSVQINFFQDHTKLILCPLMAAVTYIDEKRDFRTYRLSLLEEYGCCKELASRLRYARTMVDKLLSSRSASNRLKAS
# Sequence of SIK2 (human) (Q9H0K1 whole entry, looked up): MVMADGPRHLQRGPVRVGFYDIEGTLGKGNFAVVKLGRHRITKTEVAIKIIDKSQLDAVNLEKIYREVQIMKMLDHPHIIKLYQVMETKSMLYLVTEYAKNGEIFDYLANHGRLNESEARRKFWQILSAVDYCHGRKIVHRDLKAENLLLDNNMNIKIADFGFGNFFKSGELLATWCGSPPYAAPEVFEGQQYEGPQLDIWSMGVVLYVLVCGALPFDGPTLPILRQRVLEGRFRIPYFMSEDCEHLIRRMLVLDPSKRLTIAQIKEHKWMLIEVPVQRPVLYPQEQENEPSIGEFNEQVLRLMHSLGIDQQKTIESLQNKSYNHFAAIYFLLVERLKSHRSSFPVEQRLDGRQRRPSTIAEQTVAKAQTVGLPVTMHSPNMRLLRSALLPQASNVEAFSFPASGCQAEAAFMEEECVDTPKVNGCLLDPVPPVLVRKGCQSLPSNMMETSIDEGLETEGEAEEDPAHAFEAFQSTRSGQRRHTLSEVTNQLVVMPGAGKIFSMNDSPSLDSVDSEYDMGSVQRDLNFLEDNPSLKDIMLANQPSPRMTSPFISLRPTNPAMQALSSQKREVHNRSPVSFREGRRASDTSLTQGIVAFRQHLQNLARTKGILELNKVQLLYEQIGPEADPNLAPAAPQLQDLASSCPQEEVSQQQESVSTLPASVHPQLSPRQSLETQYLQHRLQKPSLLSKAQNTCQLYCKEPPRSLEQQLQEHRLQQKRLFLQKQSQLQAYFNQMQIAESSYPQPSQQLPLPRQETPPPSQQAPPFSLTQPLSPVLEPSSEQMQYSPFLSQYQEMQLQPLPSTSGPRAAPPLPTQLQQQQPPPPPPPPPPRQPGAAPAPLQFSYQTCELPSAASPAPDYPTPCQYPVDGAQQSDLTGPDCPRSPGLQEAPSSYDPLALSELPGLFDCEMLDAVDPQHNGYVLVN
# Sequence of PRKCH (human) (P24723 whole entry, looked up): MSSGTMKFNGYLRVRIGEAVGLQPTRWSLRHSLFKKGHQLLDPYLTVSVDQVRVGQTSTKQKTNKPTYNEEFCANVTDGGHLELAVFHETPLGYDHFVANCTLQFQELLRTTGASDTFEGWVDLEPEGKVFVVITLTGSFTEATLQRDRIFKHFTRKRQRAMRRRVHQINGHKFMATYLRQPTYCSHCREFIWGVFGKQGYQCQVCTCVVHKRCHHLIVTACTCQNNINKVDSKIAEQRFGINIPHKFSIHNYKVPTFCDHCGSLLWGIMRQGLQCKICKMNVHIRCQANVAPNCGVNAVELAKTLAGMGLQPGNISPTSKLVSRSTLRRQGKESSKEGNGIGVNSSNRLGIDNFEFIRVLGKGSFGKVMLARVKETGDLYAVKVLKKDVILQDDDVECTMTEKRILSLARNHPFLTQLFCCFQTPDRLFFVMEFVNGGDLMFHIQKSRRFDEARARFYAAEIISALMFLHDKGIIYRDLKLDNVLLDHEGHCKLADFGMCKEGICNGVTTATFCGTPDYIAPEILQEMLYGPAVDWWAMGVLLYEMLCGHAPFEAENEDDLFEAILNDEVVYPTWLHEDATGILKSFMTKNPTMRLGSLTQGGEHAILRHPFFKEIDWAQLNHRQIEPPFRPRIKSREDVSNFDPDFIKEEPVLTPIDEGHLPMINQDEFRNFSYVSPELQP
# Sequence of FGFR1 (human) (P11362 whole entry, looked up): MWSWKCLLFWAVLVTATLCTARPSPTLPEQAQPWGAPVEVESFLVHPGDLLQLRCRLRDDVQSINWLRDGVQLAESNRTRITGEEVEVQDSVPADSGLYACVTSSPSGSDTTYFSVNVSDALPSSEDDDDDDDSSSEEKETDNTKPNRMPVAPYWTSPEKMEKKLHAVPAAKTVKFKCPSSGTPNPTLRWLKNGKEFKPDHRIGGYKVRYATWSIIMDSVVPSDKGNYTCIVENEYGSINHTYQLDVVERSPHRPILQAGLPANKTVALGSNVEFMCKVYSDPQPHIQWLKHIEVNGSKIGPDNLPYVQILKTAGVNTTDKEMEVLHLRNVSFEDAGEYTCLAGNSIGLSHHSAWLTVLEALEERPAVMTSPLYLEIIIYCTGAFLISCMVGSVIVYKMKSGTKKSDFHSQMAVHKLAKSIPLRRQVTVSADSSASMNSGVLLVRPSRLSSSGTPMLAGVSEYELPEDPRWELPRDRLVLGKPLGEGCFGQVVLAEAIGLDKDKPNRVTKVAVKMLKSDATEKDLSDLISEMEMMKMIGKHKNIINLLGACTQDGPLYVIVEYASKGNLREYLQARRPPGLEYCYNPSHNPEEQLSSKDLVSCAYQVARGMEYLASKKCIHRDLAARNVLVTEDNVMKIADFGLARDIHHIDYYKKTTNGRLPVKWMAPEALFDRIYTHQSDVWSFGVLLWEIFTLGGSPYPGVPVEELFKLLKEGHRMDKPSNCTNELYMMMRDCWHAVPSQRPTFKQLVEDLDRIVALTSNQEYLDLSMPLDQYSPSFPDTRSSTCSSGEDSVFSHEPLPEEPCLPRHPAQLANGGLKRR
# Sequence of WEE1 (human) (P30291 whole entry, looked up): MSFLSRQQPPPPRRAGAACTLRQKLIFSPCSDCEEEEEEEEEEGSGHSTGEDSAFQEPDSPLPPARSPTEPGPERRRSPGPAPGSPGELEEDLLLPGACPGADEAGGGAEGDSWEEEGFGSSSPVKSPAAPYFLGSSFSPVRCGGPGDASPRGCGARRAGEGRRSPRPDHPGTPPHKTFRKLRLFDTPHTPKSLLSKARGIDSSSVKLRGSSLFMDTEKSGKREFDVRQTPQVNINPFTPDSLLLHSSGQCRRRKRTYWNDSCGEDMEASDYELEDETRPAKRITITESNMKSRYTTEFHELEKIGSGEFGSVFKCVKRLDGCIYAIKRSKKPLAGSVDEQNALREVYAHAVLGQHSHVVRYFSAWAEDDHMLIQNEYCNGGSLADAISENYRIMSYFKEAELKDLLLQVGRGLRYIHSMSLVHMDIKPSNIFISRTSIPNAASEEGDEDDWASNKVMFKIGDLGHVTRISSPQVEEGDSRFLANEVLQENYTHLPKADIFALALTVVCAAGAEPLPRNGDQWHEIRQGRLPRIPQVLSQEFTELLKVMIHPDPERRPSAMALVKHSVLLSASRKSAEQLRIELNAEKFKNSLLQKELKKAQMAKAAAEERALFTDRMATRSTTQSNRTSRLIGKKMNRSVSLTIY
# Sequence of FGFR3 (human) (P22607 whole entry, looked up): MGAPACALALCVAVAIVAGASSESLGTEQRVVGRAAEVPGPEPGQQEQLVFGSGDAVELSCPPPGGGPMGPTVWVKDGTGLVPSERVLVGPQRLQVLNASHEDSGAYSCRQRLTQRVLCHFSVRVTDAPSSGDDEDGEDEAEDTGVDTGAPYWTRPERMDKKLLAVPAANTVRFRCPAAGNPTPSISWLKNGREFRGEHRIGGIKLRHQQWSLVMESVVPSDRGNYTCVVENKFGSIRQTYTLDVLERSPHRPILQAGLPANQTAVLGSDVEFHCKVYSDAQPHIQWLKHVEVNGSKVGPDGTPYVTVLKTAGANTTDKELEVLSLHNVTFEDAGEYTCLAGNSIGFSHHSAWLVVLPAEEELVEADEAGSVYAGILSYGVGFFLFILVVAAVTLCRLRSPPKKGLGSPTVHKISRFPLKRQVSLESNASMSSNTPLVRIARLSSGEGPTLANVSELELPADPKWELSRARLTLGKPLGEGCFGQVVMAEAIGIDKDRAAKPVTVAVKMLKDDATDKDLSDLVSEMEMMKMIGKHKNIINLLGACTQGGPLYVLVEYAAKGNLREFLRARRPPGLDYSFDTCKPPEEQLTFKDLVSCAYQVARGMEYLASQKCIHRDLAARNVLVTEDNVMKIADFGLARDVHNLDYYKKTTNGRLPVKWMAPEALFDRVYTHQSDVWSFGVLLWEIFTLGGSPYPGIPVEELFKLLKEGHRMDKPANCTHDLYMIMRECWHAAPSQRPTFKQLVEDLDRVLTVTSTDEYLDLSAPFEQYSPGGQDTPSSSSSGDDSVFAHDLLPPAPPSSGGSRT
structure (smiles),measurement,setting,value
c1ccc(-c2n[nH]c3c2oc2ccccc23)cc1,residual activity,[1],96.6%
same,residual activity,[2],84.4%
same,residual activity,[3],106%
same,residual activity,[4],97%
same,residual activity,[5],85.8%
same,residual activity,[6],98.9%
same,residual activity,[7],78.1%
same,residual activity,[8],93.1%
same,residual activity,[9],114%
same,residual activity,[10],112%
same,residual activity,[11],104%
same,residual activity,[12],85.9%
same,residual activity,[13],97%
same,residual activity,[14],97.5%
same,residual activity,[15],80.4%
same,residual activity,[16],99.3%
same,residual activity,[17],102% and 108%
same,residual activity,[18],105%
same,residual activity,[19],95.7%
same,residual activity,[20],87.3%
same,residual activity,[21],96.5%
same,residual activity,[22],98.2%
same,residual activity,[23],90.6%
same,residual activity,[24],101%
same,residual activity,[25],91.5%
same,residual activity,[26],106%
same,residual activity,[27],80.9%
same,residual activity,[28],87.1%
same,residual activity,[29],79.2%
same,residual activity,[30],102% and 103%
same,residual activity,[31],96.8%
same,residual activity,[32],87.3%
same,residual activity,[33],100%
same,residual activity,[34],107%
same,residual activity,[35],93%
same,residual activity,[36],111%
same,residual activity,[37],98.3%
same,residual activity,[38],89.1%
same,residual activity,[39],99.8%
same,residual activity,[40],95.6%
same,residual activity,[41],92.6%
same,residual activity,[42],91.5%
N#CC(C#N)=C(N)/C(C#N)=C/c1ccc(O)cc1,residual activity,[1],101%
same,residual activity,[2],95.8%
same,residual activity,[3],80%
same,residual activity,[4],104%
same,residual activity,[5],91.9%
same,residual activity,[6],101%
same,residual activity,[7],98%
same,residual activity,[8],98.7%
same,residual activity,[9],95.9%
same,residual activity,[10],88.1%
same,residual activity,[11],90.1%
same,residual activity,[12],95.3%
same,residual activity,[13],102%
same,residual activity,[14],98.9%
same,residual activity,[15],98.7%
same,residual activity,[16],95.1%
same,residual activity,[17],102% and 92.2%
same,residual activity,[18],96%
same,residual activity,[19],100%
same,residual activity,[20],101%
same,residual activity,[21],96.5%
same,residual activity,[22],94.3%
same,residual activity,[23],101%
same,residual activity,[24],72.2%
same,residual activity,[25],92.5%
same,residual activity,[26],60.8%
same,residual activity,[27],90.3%
same,residual activity,[28],105%
same,residual activity,[29],101%
same,residual activity,[30],89.5% and 91.3%
same,residual activity,[31],97.4%
same,residual activity,[32],98.3%
same,residual activity,[33],93.8%
same,residual activity,[34],104%
same,residual activity,[35],110%
same,residual activity,[36],103%
same,residual activity,[37],87.7%
same,residual activity,[38],109%
same,residual activity,[39],99.1%
same,residual activity,[40],94.7%
same,residual activity,[41],93.7%
same,residual activity,[42],99.8%
CCC(=O)Nc1ccc2ncnc(Nc3cccc(Br)c3)c2c1,residual activity,[1],96.5%
same,residual activity,[2],94.4%
same,residual activity,[3],98.7%
same,residual activity,[4],99.8%
same,residual activity,[5],100%
same,residual activity,[6],99.4%
same,residual activity,[7],98.9%
same,residual activity,[8],96.9%
same,residual activity,[9],89.2%
same,residual activity,[10],93.4%
same,residual activity,[11],34%
same,residual activity,[12],108%
same,residual activity,[13],99.8%
same,residual activity,[14],93.2%
same,residual activity,[15],89.7%
same,residual activity,[16],93.1%
same,residual activity,[17],82.6% and 87.7%
same,residual activity,[18],93%
same,residual activity,[19],92.9%
same,residual activity,[20],101%
same,residual activity,[21],86.1%
same,residual activity,[22],80.2%
same,residual activity,[23],97.6%
same,residual activity,[24],107%
same,residual activity,[25],92.4%
same,residual activity,[26],95.3%
same,residual activity,[27],89.3%
same,residual activity,[28],95.7%
same,residual activity,[29],97.9%
same,residual activity,[30],101% and 110%
same,residual activity,[31],99%
same,residual activity,[32],86.1%
same,residual activity,[33],88.7%
same,residual activity,[34],90.6%
same,residual activity,[35],96.2%
same,residual activity,[36],92.8%
same,residual activity,[37],98.7%
same,residual activity,[38],99.6%
same,residual activity,[39],97.1%
same,residual activity,[40],103%
same,residual activity,[41],80.2%
same,residual activity,[42],99.3%
Nc1ccc2ncnc(NCCc3ccc(Oc4ccccc4)cc3)c2c1,residual activity,[1],101%
same,residual activity,[2],104%
same,residual activity,[3],102%
same,residual activity,[4],119%
same,residual activity,[5],103%
same,residual activity,[6],94.6%
same,residual activity,[7],106%
same,residual activity,[8],100%
same,residual activity,[9],101%
same,residual activity,[10],104%
same,residual activity,[11],108%
same,residual activity,[12],86.3%
same,residual activity,[13],95.5%
same,residual activity,[14],101%
same,residual activity,[15],104%
same,residual activity,[16],98.3%
same,residual activity,[17],101% and 103%
same,residual activity,[18],97.2%
same,residual activity,[19],98.1%
same,residual activity,[20],105%
same,residual activity,[21],86.4%
same,residual activity,[22],105%
same,residual activity,[23],94.4%
same,residual activity,[24],101%
same,residual activity,[25],96.4%
same,residual activity,[26],91.1%
same,residual activity,[27],97.9%
same,residual activity,[28],96%
same,residual activity,[29],99.3%
same,residual activity,[30],93.1% and 94.5%
same,residual activity,[31],95%
same,residual activity,[32],90.7%
same,residual activity,[33],108%
same,residual activity,[34],103%
same,residual activity,[35],99.6%
same,residual activity,[36],106%
same,residual activity,[37],97.4%
same,residual activity,[38],94.7%
same,residual activity,[39],95.8%
same,residual activity,[40],88.3%
same,residual activity,[41],86.2%
same,residual activity,[42],114%
